According to patent US7335248B2, “Marine antifouling coating compositions” (Novus International, Inc., priority 2005, dated 2008):
Where “and” joins values, the source holds several entries; their conditions need not be identical. Identical values can stand only once.

What was measured:
barnacle cyprids = assay: Barnacle cyprid settlement assay (method of Rittschof et al.), EC50 by probit analysis; type: in vivo, Balanus amphitrite amphitrite
Experimental: In this case, the defined effect is that the cyprids have not settled and have not attached to the Petri dish. Thus, in the attached data set, the “set” column indicates the total number of cyprid larvae that have settled and attached on the surface of the Petri dish and “non-set” indicates the total number of cyprids that remain swimming in the seawater and have not settled on the surface of the Petri dish.
Briefly, the barnacle adults are cultured in the laboratory and allowed to spawn naturally. The larvae are harvested and grown in artificial culture systems until they reach the cyprid stage at which time the larvae become competent to attach to surfaces. Once attached, the cyprids transform into a pinhead barnacle, thus becoming permanently attached to the surface. Rittschof D, Clare A S, Gerhart D J, Avelin Mary, Bonavetura J (1991) Barnacle in vitro assays for biologically active substances: toxicity and settlement assays using mass cultured Balanus amphitrite amphitrite Darwin. Biofouling (1992) 6:115-122.
(§1) Five replicates (e.g., a-e) for each concentration and the control were collected.

[1] = Solubility in seawater at the levels added in the cyprid assay; type: physicochemical; settings: at the levels added (up to 0.1 mg/ml)
Excerpt: as §1

barnacles [2] = assay: Six month static immersion fouling test of painted PVC panels (open ocean, Tuticorin, India); type: in vivo; settings: for Total barnacle Count: both duplicate panels; for Mean ± SD (barnacle count): four panel surfaces; for efficacy / barnacle settlement: copper self-polishing and metal-free ablative coatings, six months of exposure
Excerpt: The reported data were extracted from the raw data as described below, and are shown as total barnacle counts for both duplicate panels of each test formulation. In Table 4, the mean and standard deviation of the data derived from the four panels' surfaces of the duplicate panels for each group. The barnacle counts along the edges were not considered in this evaluation because of the expected uneven coating and inherent tendency of barnacles to first attach to edges. In addition, coatings along the edges can be easily damaged or uneven. Thus, for evaluation purposes only the coated surfaces of the flat areas were considered for this evaluation.
Zinc Omadine was used as the positive control for this series of tests. It is important to note here that fouling is continuous throughout the year at the Tuticorin, India site and the degree of settlement is generally the same for the same coating system.

barnacles [3] = assay: Nine month static immersion testing in the Indian Ocean; type: in vivo; settings: 9-month static immersion
Excerpt: Table 5 summarizes the anti-fouling data from the nine-month immersion test, performed as described above for the six month tests.

[4] = 1e-5 mg/ml, Total of five replicates
[5] = 1e-4 mg/ml, Total of five replicates
[6] = 0.001 mg/ml, Total of five replicates
[7] = 0.01 mg/ml, Total of five replicates
[8] = 0.1 mg/ml, Total of five replicates
[9] = CUAB coating, 1% (w/w), 6 months
[10] = CUAB coating, 3% (w/w), 6 months
[11] = CUAB coating, 5% (w/w), 6 months
[12] = CUAB coating, 10% (w/w), 6 months
[13] = CUSP coating, 1% (w/w), 6 months
[14] = CUSP coating, 3% (w/w), 6 months
[15] = CUSP coating, 5% (w/w), 6 months
[16] = CUSP coating, 10% (w/w), 6 months
[17] = MFAB coating, 1% (w/w), 6 months
[18] = MFAB coating, 3% (w/w), 6 months
[19] = MFAB coating, 5% (w/w), 6 months
[20] = MFAB coating, 10% (w/w), 6 months

In the case of `CSCCC(O)C(=O)[O-].CSCCC(O)C(=O)[O-].[Cu+2]` (stereo not shown) [HMTBA-Cu, copper 2-hydroxy-4-methylthiobutanoate chelate], the “% of set” value (barnacle cyprids; [4]) was 74%, the Non set (barnacle cyprids; [4]) was 86 and the Set (barnacle cyprids; [4]) was 241. The “% of set” value (barnacle cyprids; 1e-5 mg/ml, single replicate) was 77% and 70% and 74% and 68% and 82%, the Non set (barnacle cyprids; 1e-5 mg/ml, single replicate) was 14 and 21 and 15 and 25 and 11 and the Set (barnacle cyprids; 1e-5 mg/ml, single replicate) was 46 and 48 and 42 and 54 and 51. For the same compound, the “% of set” value (barnacle cyprids; [5]) was 71%, the Non set (barnacle cyprids; [5]) was 89 and the Set (barnacle cyprids; [5]) was 213. For the same compound, the “% of set” value (barnacle cyprids; 1e-4 mg/ml, single replicate) was 66% and 79% and 63% and 73% and 72%, the Non set (barnacle cyprids; 1e-4 mg/ml, single replicate) was 11 and 12 and 29 and 16 and 21 and the Set (barnacle cyprids; 1e-4 mg/ml, single replicate) was 21 and 46 and 49 and 43 and 54. For the same compound, the “% of set” value (barnacle cyprids; [6]) was 53%, the Non set (barnacle cyprids; [6]) was 155 and the Set (barnacle cyprids; [6]) was 173. The “% of set” value (barnacle cyprids; 0.001 mg/ml, single replicate) was 46% and 56% and 42% and 55% and 65%, the Non set (barnacle cyprids; 0.001 mg/ml, single replicate) was 27 and 34 (2×) and 42 and 18 and the Set (barnacle cyprids; 0.001 mg/ml, single replicate) was 23 and 44 and 31 and 41 and 34. The “appearance and swimming behavior of cyprids” value (barnacle cyprids; 0.01 mg/ml and higher (so in the source)) was “no adverse effects”, the “% of set” value (barnacle cyprids; [7]) was 10% and the Non set (barnacle cyprids; [7]) was 285. For the same compound, the Set (barnacle cyprids; [7]) was 30, the “% of set” value (barnacle cyprids; 0.01 mg/ml, single replicate) was 9% and 6% and 8% (2×) and 24% and the Non set (barnacle cyprids; 0.01 mg/ml, single replicate) was 79 and 66 and 59 and 25 and 56. For the same compound, the Set (barnacle cyprids; 0.01 mg/ml, single replicate) was 8 (2×) and 4 and 5 (2×), the “toxic effects on the cyprids” value (barnacle cyprids; 0.1 mg per ml) was “death of all cyprids” and the “% of set” value (barnacle cyprids; [8]) was 0%. For the same compound, the Non set (barnacle cyprids; [8]) was 314, the Set (barnacle cyprids; [8]) was 0 and the “% of set” value (barnacle cyprids; 0.1 mg/ml, single replicate) was 0%. The Non set (barnacle cyprids; 0.1 mg/ml, single replicate) was 69 and 94 and 54 and 59 and 38, the Set (barnacle cyprids; 0.1 mg/ml, single replicate) was 0 and the EC50 (barnacle cyprids; barnacle cyprids not settled/attached to Petri dish, probit analysis) was 1.8 µg/mL. The “inhibition of barnacle cyprid settlement” value (barnacle cyprids; in vivo) was “biologically active as inhibitors of barnacle cyprid settlement”, the SLOPE (barnacle cyprids; probit analysis, barnacle settlement) was 1.567 and the solubility in seawater [1] was “soluble in seawater at the levels added”. The “Total barnacle Count” value (barnacles [2]; [9]) was 472, the “Mean ± SD (barnacle count)” value (barnacles [2]; [9]) was 118.0 ± 158.0 and the “Total barnacle Count” value (barnacles [2]; [10]) was 170. For the same compound, the “Mean ± SD (barnacle count)” value (barnacles [2]; [10]) was 42.5 ± 21.1, the “Total barnacle Count” value (barnacles [2]; [11]) was 126 and the “Mean ± SD (barnacle count)” value (barnacles [2]; [11]) was 31.4 ± 46.4. For the same compound, the “Total barnacle Count” value (barnacles [2]; [12]) was 123, the “Mean ± SD (barnacle count)” value (barnacles [2]; [12]) was 30.8 ± 12.9 and the “Total barnacle Count” value (barnacles [2]; [13]) was 4. For the same compound, the “Mean ± SD (barnacle count)” value (barnacles [2]; [13]) was 1.0 ± 1.7, the “Total barnacle Count” value (barnacles [2]; [14]) was 6 and the “Mean ± SD (barnacle count)” value (barnacles [2]; [14]) was 1.5 ± 2.6. The “Total barnacle Count” value (barnacles [2]; [15]) was 8, the “Mean ± SD (barnacle count)” value (barnacles [2]; [15]) was 2.0 ± 2.4 and the “Total barnacle Count” value (barnacles [2]; [16]) was 9. For the same compound, the “Mean ± SD (barnacle count)” value (barnacles [2]; [16]) was 2.3 ± 1.9, the “Total barnacle Count” value (barnacles [2]; [17]) was 8 and the “Mean ± SD (barnacle count)” value (barnacles [2]; [17]) was 2.0 ± 2.4. The “Total barnacle Count” value (barnacles [2]; [18]) was 13, the “Mean ± SD (barnacle count)” value (barnacles [2]; [18]) was 3.3 ± 4.5 and the “Total barnacle Count” value (barnacles [2]; [19]) was 11. The “Mean ± SD (barnacle count)” value (barnacles [2]; [19]) was 2.8 ± 4.2, the “Total barnacle Count” value (barnacles [2]; [20]) was 4 and the “Mean ± SD (barnacle count)” value (barnacles [2]; [20]) was 1.0 ± 1.7. For the same compound, the “efficacy / barnacle settlement” value (barnacles [2]) was “significant efficacy”, the “LS MEAN BARNACLES” value (barnacles [3]; CUSP PAINT) was 16 and the “LS MEAN BARNACLES” value (barnacles [3]; MFAB PAINT) was 1.25.

For `[O-][n+]1ccccc1[S-].[O-][n+]1ccccc1[S-].[Zn+2]` [Zn Omadine, zinc salt of pyrithione, reference compound], the “Total barnacle Count” value (barnacles [2]; [11]) was 167, the “Mean ± SD (barnacle count)” value (barnacles [2]; [11]) was 41.8 ± 23.3 and the “Total barnacle Count” value (barnacles [2]; [15]) was 33. For the same compound, the “Mean ± SD (barnacle count)” value (barnacles [2]; [15]) was 8.3 ± 4.0, the “Total barnacle Count” value (barnacles [2]; [19]) was 113 and the “Mean ± SD (barnacle count)” value (barnacles [2]; [19]) was 28 ± 15.0. The “barnacle coverage of panels” value (barnacles [2]; MFSP coating, 5%, 6 months) was “fully covered by barnacles” and the “efficacy / barnacle settlement” value (barnacles [2]) was “substantial settlement”.

In the case of `CSCC[C@H](N)C(=O)O.[Zn]` [Zn-Methionine, zinc methionine], the “LS MEAN BARNACLES” value (barnacles [3]; CUSP PAINT) was 0.5 and the “LS MEAN BARNACLES” value (barnacles [3]; MFAB PAINT) was 8.
